# In the supplement of paper PMC10307832:
# What was measured:
# Test in all cases: relative viability (nuclei count vs DMSO), 5 days (fraction); higher = more cells survive
# A-427 = system: A-427
# In short: (§1)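 One day after seeding in 1536-well plates, lung cancer cell lines were dosed by pin tool. Dosing was either single-drug or a fixed anchor-drug dose plus five library-drug doses (not always all listed) in √10 steps. After 5 days, nuclei were stained in one fix-and-stain step and counted on 4× images, and relative viability is the nuclei count of treated wells over that of vehicle wells, given as the median of duplicate plates.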
# NCI-H2228 = system: NCI-H2228
# In short: as §1
# 201T = system: 201T
# In short: as §1
# NCI-H596 = system: NCI-H596
# In short: as §1
# H3255 = system: H3255
# In short: as §1
# NCI-H23 = system: NCI-H23
# In short: as §1
# SW 1573 = system: SW 1573
# In short: as §1
# HCC-44 = system: HCC-44
# In short: as §1
# NCI-H460 = system: NCI-H460
# In short: as §1
# LU99A = system: LU99A
# In short: as §1
# LK-2 = system: LK-2
# In short: as §1
# LC-2-ad = system: LC-2-ad
# In short: as §1
# NCI-H727 = system: NCI-H727
# In short: as §1
# NCI-H1650 = system: NCI-H1650
# In short: as §1
# PC-14 = system: PC-14
# In short: as §1
# LCLC-97TM1 = system: LCLC-97TM1
# In short: as §1
# COR-L23 = system: COR-L23
# In short: as §1
# LCLC-103H = system: LCLC-103H
# In short: as §1
# NCI-H1793 = system: NCI-H1793
# In short: as §1
# NCI-H2347 = system: NCI-H2347
# In short: as §1
# SW 900 = system: SW 900
# In short: as §1
smiles,measurement,setting,value
Nc1ccn([C@@H]2O[C@H](CO)[C@@H](O)[C@@H]2O)c(=O)n1 [Cytarabine] + Cc1cc(Nc2cc(N3CCN(C)CC3)nc(Sc3ccc(NC(=O)C4CC4)cc3)n2)n[nH]1 [Tozasertib] (partner 0.1 µM),relative viability,A-427; first compound 0.005 µM,0.232
same,relative viability,A-427; first compound 0.01581 µM,0.212
same,relative viability,A-427; first compound 0.05 µM,0.163
same,relative viability,A-427; first compound 0.1581 µM,0.161
same,relative viability,A-427; first compound 0.5 µM,0.149
same,relative viability,NCI-H2228; first compound 0.005 µM,0.144
same,relative viability,NCI-H2228; first compound 0.01581 µM,0.204
same,relative viability,NCI-H2228; first compound 0.05 µM,0.207
same,relative viability,NCI-H2228; first compound 0.1581 µM,0.0929
same,relative viability,NCI-H2228; first compound 0.5 µM,0.105
same,relative viability,201T; first compound 0.005 µM,0.886
same,relative viability,201T; first compound 0.01581 µM,0.944
same,relative viability,201T; first compound 0.05 µM,0.911
same,relative viability,201T; first compound 0.1581 µM,0.837
same,relative viability,201T; first compound 0.5 µM,0.706
same,relative viability,NCI-H596; first compound 0.005 µM,1.03
same,relative viability,NCI-H596; first compound 0.01581 µM,0.945
same,relative viability,NCI-H596; first compound 0.05 µM,0.712
same,relative viability,NCI-H596; first compound 0.1581 µM,0.589
same,relative viability,NCI-H596; first compound 0.5 µM,0.469
same,relative viability,H3255; first compound 0.005 µM,0.586
same,relative viability,H3255; first compound 0.01581 µM,0.644
same,relative viability,H3255; first compound 0.05 µM,0.786
same,relative viability,H3255; first compound 0.1581 µM,0.604
same,relative viability,H3255; first compound 0.5 µM,0.488
same,relative viability,NCI-H23; first compound 0.005 µM,0.362
same,relative viability,NCI-H23; first compound 0.01581 µM,0.32
same,relative viability,NCI-H23; first compound 0.05 µM,0.243
same,relative viability,NCI-H23; first compound 0.1581 µM,0.55
same,relative viability,NCI-H23; first compound 0.5 µM,0.244
same,relative viability,SW 1573; first compound 0.005 µM,0.184
same,relative viability,SW 1573; first compound 0.01581 µM,0.161
same,relative viability,SW 1573; first compound 0.05 µM,0.128
same,relative viability,SW 1573; first compound 0.1581 µM,0.169
same,relative viability,SW 1573; first compound 0.5 µM,0.101
same,relative viability,HCC-44; first compound 0.005 µM,0.925
same,relative viability,HCC-44; first compound 0.01581 µM,0.928
same,relative viability,HCC-44; first compound 0.05 µM,0.418
same,relative viability,HCC-44; first compound 0.1581 µM,0.379
same,relative viability,HCC-44; first compound 0.5 µM,0.255
same,relative viability,NCI-H460; first compound 0.005 µM,0.438
same,relative viability,NCI-H460; first compound 0.01581 µM,0.362
same,relative viability,NCI-H460; first compound 0.05 µM,0.196
same,relative viability,NCI-H460; first compound 0.1581 µM,0.0434
same,relative viability,NCI-H460; first compound 0.5 µM,0.0361
same,relative viability,LU99A; first compound 0.005 µM,0.263
same,relative viability,LU99A; first compound 0.01581 µM,0.273
same,relative viability,LU99A; first compound 0.05 µM,0.275
same,relative viability,LU99A; first compound 0.1581 µM,0.288
same,relative viability,LU99A; first compound 0.5 µM,0.281
same,relative viability,LK-2; first compound 0.005 µM,0.213
same,relative viability,LK-2; first compound 0.01581 µM,0.185
same,relative viability,LK-2; first compound 0.05 µM,0.168
same,relative viability,LK-2; first compound 0.1581 µM,0.157
same,relative viability,LK-2; first compound 0.5 µM,0.215
same,relative viability,LC-2-ad; first compound 0.005 µM,0.415
same,relative viability,LC-2-ad; first compound 0.01581 µM,0.452
same,relative viability,LC-2-ad; first compound 0.05 µM,0.418
same,relative viability,LC-2-ad; first compound 0.1581 µM,0.39
same,relative viability,LC-2-ad; first compound 0.5 µM,0.301
same,relative viability,NCI-H727; first compound 0.005 µM,0.574
same,relative viability,NCI-H727; first compound 0.01581 µM,0.386
same,relative viability,NCI-H727; first compound 0.05 µM,0.476
same,relative viability,NCI-H727; first compound 0.1581 µM,0.4
same,relative viability,NCI-H727; first compound 0.5 µM,0.463
same,relative viability,NCI-H1650; first compound 0.005 µM,0.294
same,relative viability,NCI-H1650; first compound 0.01581 µM,0.33
same,relative viability,NCI-H1650; first compound 0.05 µM,0.303
same,relative viability,NCI-H1650; first compound 0.1581 µM,0.26
same,relative viability,NCI-H1650; first compound 0.5 µM,0.213
same,relative viability,PC-14; first compound 0.005 µM,0.404
same,relative viability,PC-14; first compound 0.01581 µM,0.448
same,relative viability,PC-14; first compound 0.05 µM,0.248
same,relative viability,PC-14; first compound 0.1581 µM,0.157
same,relative viability,PC-14; first compound 0.5 µM,0.0594
same,relative viability,LCLC-97TM1; first compound 0.005 µM,0.248
same,relative viability,LCLC-97TM1; first compound 0.01581 µM,0.247
same,relative viability,LCLC-97TM1; first compound 0.05 µM,0.235
same,relative viability,LCLC-97TM1; first compound 0.1581 µM,0.207
same,relative viability,LCLC-97TM1; first compound 0.5 µM,0.174
same,relative viability,COR-L23; first compound 0.005 µM,0.164
same,relative viability,COR-L23; first compound 0.01581 µM,0.141
same,relative viability,COR-L23; first compound 0.05 µM,0.159
same,relative viability,COR-L23; first compound 0.1581 µM,0.123
same,relative viability,COR-L23; first compound 0.5 µM,0.129
same,relative viability,LCLC-103H; first compound 0.005 µM,0.568
same,relative viability,LCLC-103H; first compound 0.01581 µM,0.487
same,relative viability,LCLC-103H; first compound 0.05 µM,0.413
same,relative viability,LCLC-103H; first compound 0.1581 µM,0.436
same,relative viability,LCLC-103H; first compound 0.5 µM,0.373
same,relative viability,NCI-H1793; first compound 0.005 µM,0.346
same,relative viability,NCI-H1793; first compound 0.01581 µM,0.32
same,relative viability,NCI-H1793; first compound 0.05 µM,0.333
same,relative viability,NCI-H1793; first compound 0.1581 µM,0.291
same,relative viability,NCI-H1793; first compound 0.5 µM,0.332
same,relative viability,NCI-H2347; first compound 0.005 µM,0.553
same,relative viability,NCI-H2347; first compound 0.01581 µM,0.427
same,relative viability,NCI-H2347; first compound 0.05 µM,0.444
same,relative viability,NCI-H2347; first compound 0.1581 µM,0.52
same,relative viability,NCI-H2347; first compound 0.5 µM,0.402
same,relative viability,SW 900; first compound 0.005 µM,0.555
same,relative viability,SW 900; first compound 0.01581 µM,0.402
same,relative viability,SW 900; first compound 0.05 µM,0.287
same,relative viability,SW 900; first compound 0.1581 µM,0.233
same,relative viability,SW 900; first compound 0.5 µM,0.134
